Values quoted from earlier work, collected in patent publication US20230076766A1, “METHOD FOR TREATMENT OF ROSACEA IN PATIENTS AGED 35-64 YEARS” (Sol-Gel Technologies Ltd., priority 2021, published 2023).

Test system: rosacea lesions
Conditions: BPO as the sole active agent

SMILES: O=C(OOC(=O)c1ccccc1)c1ccccc1 [BPO, Benzoyl peroxide]
- response of rosacea lesions: unresponsive
